The source made the active and inactive calls. No cut-off for these calls is given here.
Experiments:
[1] = Inhibition of concanavalin A-induced cell proliferation of T cells (unknown origin) at 10 uM after 72 hrs by MTT assay; assay type: functional
[2] = system: B-cell; assay: Inhibition of LPS-induced cell proliferation of B cells (unknown origin) at 10 uM after 72 hrs by MTT assay; assay type: functional
[3] = Solubility in water; assay type: physicochemical
[4] = system: THP-1; assay: Inhibition of LPS-induced IL6 production in human THP1 cells after 24 hrs; assay type: functional, cell-based; settings: THP-1, 24 h
[5] = system: THP-1; assay: Inhibition of LPS-induced TNFalpha production in human THP1 cells after 24 hrs; assay type: functional, cell-based; settings: THP-1, 24 h
[6] = system: THP-1; assay: Inhibition of LPS-induced IL-1beta production in human THP1 cells at 10 uM after 24 hrs; assay type: functional; settings: THP-1, 24 h
[7] = system: THP-1; assay: Inhibition of LPS-induced nitric oxide production in human THP1 cells at 10 uM after 24 hrs by Griess assay; assay type: functional; settings: THP-1, 24 h
[8] = system: THP-1; assay: Cytotoxicity against human THP1 cells after 24 hrs by MTT assay; assay type: cell-based; settings: THP-1, 24 h
[9] = system: THP-1; assay: Cytotoxicity against human THP1 cells after 48 hrs by MTT assay; assay type: cell-based; settings: THP-1, 48 h
[10] = Therapeutic index, ratio of cytotoxic IC50 for human THP1 cells by MTT assay to IC50 for inhibition of LPS-induced IL6 production in human THP1 cells; assay type: cell-based, THP-1; settings: read-out: Ratio IC50
[11] = system: Mus musculus; assay: Antiinflammatory activity in BALB/c mouse assessed as serum TNFalpha level at 10 mg/kg, po qd for 5 days followed by LPS challenge 1 hr after last compound dose on fifth day and measured 4 hrs post LPS challenge by ELISA method (reference value: 717 +/- 218 pg/mL); assay type: functional
[12] = system: Mus musculus; assay: Antiinflammatory activity in BALB/c mouse assessed as serum TNFalpha level at 100 mg/kg, po qd for 5 days followed by LPS challenge 1 hr after last compound dose on fifth day and measured 4 hrs post LPS challenge by ELISA method (reference value: 717 +/- 218 pg/mL); assay type: functional
[13] = system: Mus musculus; assay: Antiinflammatory activity in BALB/c mouse assessed as serum IL6 level at 10 mg/kg, po qd for 5 days followed by LPS challenge 1 hr after last compound dose on fifth day and measured 4 hrs post LPS challenge by ELISA method (reference value: 410 +/- 95 pg/mL); assay type: functional
[14] = system: Mus musculus; assay: Antiinflammatory activity in BALB/c mouse assessed as serum IL6 level at 100 mg/kg, po qd for 5 days followed by LPS challenge 1 hr after last compound dose on fifth day and measured 4 hrs post LPS challenge by ELISA method (reference value: 410 +/- 95 pg/mL); assay type: functional
[15] = system: Mus musculus; assay: Antiinflammatory activity in BALB/c mouse assessed as serum nitric oxide level at 10 mg/kg, po qd for 5 days followed by LPS challenge 1 hr after last compound dose on fifth day and measured 4 hrs post LPS challenge by Griess assay (reference value: 6.95 +/- 1.81 uM); assay type: functional
[16] = system: Mus musculus; assay: Antiinflammatory activity in BALB/c mouse assessed as serum nitric oxide level at 100 mg/kg, po qd for 5 days followed by LPS challenge 1 hr after last compound dose on fifth day and measured 4 hrs post LPS challenge by Griess assay (reference value: 6.95 +/- 1.81 uM); assay type: functional
[17] = system: Mus musculus; assay: Antiarthritic activity in BALB/c mouse assessed as reduction in SRBC-induced blood IFNgamma level administered orally once daily for 14 days measured 4 hrs post last dose by ELISA method; assay type: functional, organism-based
[18] = system: Mus musculus; assay: Antiarthritic activity in BALB/c mouse assessed as reduction in SRBC-induced blood IL4 level administered orally once daily for 14 days measured 4 hrs post last dose by ELISA method; assay type: functional, organism-based
[19] = system: Mus musculus; assay: Antiarthritic activity in BALB/c mouse assessed as reduction in SRBC-induced blood IL2 level administered orally once daily for 14 days measured 4 hrs post last dose by ELISA method; assay type: functional, organism-based
[20] = system: Mus musculus; assay: Immunosuppressive activity in BALB/c mouse assessed as reduction in SRBC-induced humoral immunity by measuring IgM level at 3 to 30 mg/kg, po administered once daily for 14 days measured 4 hrs post last dose; assay type: functional, organism-based
[21] = system: Mus musculus; assay: Immunosuppressive activity in BALB/c mouse assessed as reduction in SRBC-induced humoral immunity by measuring IgG level at 3 to 30 mg/kg, po administered once daily for 14 days measured 4 hrs post last dose; assay type: functional, organism-based
[22] = system: Mus musculus; assay: Immunosuppressive activity in BALB/c mouse assessed as reduction in SRBC-induced DTH response at 3 to 30 mg/kg, po administered once daily for 14 days measured 4 hrs post last dose; assay type: functional, organism-based
[23] = system: Mus musculus; assay: Antiarthritic activity in DBA/1J mouse collagen-induced arthritis model assessed as reduction in paw swelling at 30 mg/kg, po administered once daily for 49 days starting from onset of disease; assay type: functional; settings: 1176 h
[24] = system: Mus musculus; assay: Antiarthritic activity in DBA/1J mouse collagen-induced arthritis model assessed as reduction in anticollagen antibody IgG1 level at 3 to 30 mg/kg, po administered once daily for 49 days starting from onset of disease and measured after 14 days of disease onset by ELISA method; assay type: functional, organism-based
[25] = system: Mus musculus; assay: Antiarthritic activity in DBA/1J mouse collagen-induced arthritis model assessed as reduction in anticollagen antibody IgG2a level at 3 to 30 mg/kg, po administered once daily for 49 days starting from onset of disease and measured after 14 days of disease onset by ELISA method; assay type: functional, organism-based
[26] = system: Mus musculus; assay: Antiarthritic activity in DBA/1J mouse collagen-induced arthritis model assessed as reduction in anticollagen antibody IgG1 level at 3 to 30 mg/kg, po administered once daily for 49 days starting from onset of disease and measured after 49 days of disease onset by ELISA method; assay type: functional, organism-based
[27] = system: Mus musculus; assay: Antiarthritic activity in DBA/1J mouse collagen-induced arthritis model assessed as reduction in anticollagen antibody IgG2a level at 3 to 30 mg/kg, po administered once daily for 49 days starting from onset of disease and measured after 49 days of disease onset by ELISA method; assay type: functional, organism-based
[28] = system: Mus musculus; assay: Antiarthritic activity in DBA/1J mouse collagen-induced arthritis model assessed as reduction in TNFalpha level at 3 to 30 mg/kg, po administered once daily for 49 days starting from onset of disease and measured after 3 to 49 days of disease onset by ELISA method; assay type: functional, organism-based
[29] = system: Mus musculus; assay: Antiarthritic activity in DBA/1J mouse collagen-induced arthritis model assessed as reduction in IL6 level at 3 to 30 mg/kg, po administered once daily for 49 days starting from onset of disease and measured after 3 to 49 days of disease onset by ELISA method; assay type: functional, organism-based
[30] = system: Mus musculus; assay: Antiarthritic activity in DBA/1J mouse collagen-induced arthritis model assessed as reduction in IL-1beta level at 3 to 30 mg/kg, po administered once daily for 49 days starting from onset of disease and measured after 3 to 49 days of disease onset by ELISA method; assay type: functional, organism-based
[31] = biological target: Inhibitor of NF-kappa-B kinase (IKK) (Homo sapiens) (UniProt O14920+O15111+Q9Y6K9); assay: Inhibition of IKKbeta expression in human THP1 cells at 20 to 100 uM by Western blotting method; assay type: functional, cell-based; settings: THP-1
[32] = Solubility in PBS buffer; assay type: physicochemical
[33] = Solubility in SGF solution; assay type: physicochemical
[34] = Solubility in SIF solution; assay type: physicochemical

COc1c(O)c(CN2CCC(c3ccccc3)CC2)c2c(c1O)[C@@H]1O[C@H](CO)[C@@H](O)[C@H](O)[C@H]1OC2=O
inhibition at 10 µM [1]: 37.2%
inhibition at 10 µM [2]: 28.2%
solubility [3]: > 1500 µg/mL
IC50 [4]: 351 nM
IC50 [5]: > 30 µM

CCCN(CCC)Cc1c(O)c(OC)c(O)c2c1C(=O)O[C@@H]1[C@@H](O)[C@H](O)[C@@H](CO)O[C@@H]21
inhibition at 10 µM [1]: 10.3%
inhibition at 10 µM [2]: 2.8%
solubility [3]: > 1500 µg/mL
IC50 [4]: 361 nM
IC50 [5]: > 30 µM

COc1c(O)c(CN2CCN(C)CC2)c2c(c1O)[C@@H]1O[C@H](CO)[C@@H](O)[C@H](O)[C@H]1OC2=O
inhibition at 10 µM [1]: 36.9%
inhibition at 10 µM [2]: 49%
solubility [3]: > 1500 µg/mL
IC50 [4]: 141 nM
IC50 [5]: > 30 µM
inhibition at 10 µM [6]: 41%
inhibition at 10 µM [7]: 41%
IC50 [8]: 107 µM
IC50 [9]: 68 µM
selectivity ratio [10]: > 400
Activity [11]: 672 pg/mL
Activity [12]: 398 pg/mL
Activity [13]: 282 pg/mL
Activity [14]: 58 pg/mL
Activity [15]: 2.87 µM
Activity [16]: 1.24 µM
inhibition [17]: Dose-dependent effect
inhibition [18]: Dose-dependent effect
inhibition [19]: Dose-dependent effect
inhibition [20]: Active
inhibition [21]: Active
inhibition [22]: Active
inhibition in vivo at 30 mg/kg [23]: 28%
inhibition [24]: Active
inhibition [25]: Active
inhibition [26]: Active
inhibition [27]: Active
inhibition [28]: Active
inhibition [29]: Active
inhibition [30]: Active
inhibition [31]: Active
solubility [32]: > 1500 µg/mL
solubility [33]: > 1500 µg/mL
solubility [34]: > 1500 µg/mL

COc1c(O)c(CN2CCCCC2)c2c(c1O)[C@@H]1O[C@H](CO)[C@@H](O)[C@H](O)[C@H]1OC2=O
inhibition at 10 µM [1]: 13%
inhibition at 10 µM [2]: 34.8%
solubility [3]: > 1500 µg/mL
IC50 [4]: 317 nM
IC50 [5]: > 30 µM

COc1c(O)c(CN(C)C)c2c(c1O)[C@@H]1O[C@H](CO)[C@@H](O)[C@H](O)[C@H]1OC2=O
inhibition at 10 µM [1]: 21.1%
inhibition at 10 µM [2]: 44%
solubility [3]: > 1500 µg/mL
IC50 [4]: 211 nM
IC50 [5]: > 30 µM

COc1c(O)c(CN2C[C@@H](O)CC2C(=O)O)c2c(c1O)[C@@H]1O[C@H](CO)[C@@H](O)[C@H](O)[C@H]1OC2=O (some centres undefined)
inhibition at 10 µM [1]: 6.5%
inhibition at 10 µM [2]: 11.4%
solubility [3]: > 1500 µg/mL
IC50 [4]: 322 nM
IC50 [5]: > 30 µM

COc1c(O)c(CN2CCCC2)c2c(c1O)[C@@H]1O[C@H](CO)[C@@H](O)[C@H](O)[C@H]1OC2=O
inhibition at 10 µM [1]: 14.8%
inhibition at 10 µM [2]: 2.5%
solubility [3]: > 1500 µg/mL
IC50 [4]: 755 nM
IC50 [5]: > 30 µM

COc1c(O)c(CN2CCC[C@H]2CO)c2c(c1O)[C@@H]1O[C@H](CO)[C@@H](O)[C@H](O)[C@H]1OC2=O
inhibition at 10 µM [1]: 37.5%
inhibition at 10 µM [2]: 31.6%
solubility [3]: > 1500 µg/mL
IC50 [4]: 745 nM
IC50 [5]: 13.5 µM

COc1c(O)c(CN2CCOCC2)c2c(c1O)[C@@H]1O[C@H](CO)[C@@H](O)[C@H](O)[C@H]1OC2=O
inhibition at 10 µM [1]: 37.5%
inhibition at 10 µM [2]: 31.6%
solubility [3]: > 1500 µg/mL
IC50 [4]: 1860 nM
IC50 [5]: 16 µM

COc1c(O)c(CN2CCC(Cc3ccccc3)CC2)c2c(c1O)[C@@H]1O[C@H](CO)[C@@H](O)[C@H](O)[C@H]1OC2=O
inhibition at 10 µM [1]: 16%
inhibition at 10 µM [2]: 18.2%
solubility [3]: > 1500 µg/mL
IC50 [4]: 371 nM
IC50 [5]: > 30 µM

COc1c(O)c(CN(C)CC(=O)O)c2c(c1O)[C@@H]1O[C@H](CO)[C@@H](O)[C@H](O)[C@H]1OC2=O
inhibition at 10 µM [1]: 4%
inhibition at 10 µM [2]: 17%
solubility [3]: > 1500 µg/mL
IC50 [4]: 1630 nM
IC50 [5]: > 30 µM

CCOC(=O)N1CCN(Cc2c(O)c(OC)c(O)c3c2C(=O)O[C@@H]2[C@@H](O)[C@H](O)[C@@H](CO)O[C@@H]32)CC1
inhibition at 10 µM [1]: 27%
inhibition at 10 µM [2]: 9%
solubility [3]: > 1500 µg/mL
IC50 [4]: 177 nM
IC50 [5]: > 30 µM

CCN1CCN(Cc2c(O)c(OC)c(O)c3c2C(=O)O[C@@H]2[C@@H](O)[C@H](O)[C@@H](CO)O[C@@H]32)CC1
inhibition at 10 µM [1]: 34.2%
inhibition at 10 µM [2]: 44.2%
solubility [3]: > 1500 µg/mL
IC50 [4]: 195 nM
IC50 [5]: > 30 µM

COc1c(O)c(CN2CCC[C@H]2C(=O)O)c2c(c1O)[C@@H]1O[C@H](CO)[C@@H](O)[C@H](O)[C@H]1OC2=O
inhibition at 10 µM [1]: 17.3%
inhibition at 10 µM [2]: 28.2%
solubility [3]: > 1500 µg/mL
IC50 [4]: 918 nM
IC50 [5]: 25.5 µM
